As usually defined, the IC50 is the point on the concentration scale where inhibition reaches its midpoint. As usually defined, the EC50 is the concentration giving half of the maximal effect.

The values below come from ChEMBL document CHEMBL1201862, “PubChem BioAssay data set” (2004).

One test concerns the target T1, Bcl-2-related protein A1 (Mus musculus, UniProt Q07440).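 Also: confirmatory dose–response counterscreen on Bfl-1, used to check hits from a UBC13 polyubiquitin inhibitor campaign.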
T1 sequence (Q07440 whole entry): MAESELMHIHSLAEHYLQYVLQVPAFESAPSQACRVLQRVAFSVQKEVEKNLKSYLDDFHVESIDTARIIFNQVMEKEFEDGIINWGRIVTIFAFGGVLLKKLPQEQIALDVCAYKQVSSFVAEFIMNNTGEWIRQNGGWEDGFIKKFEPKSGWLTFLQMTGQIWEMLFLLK
Format: functional.

Test [1] addresses T2, Ubiquitin-conjugating enzyme E2 N (Homo sapiens, UniProt P61088).
T2 sequence (P61088 whole entry): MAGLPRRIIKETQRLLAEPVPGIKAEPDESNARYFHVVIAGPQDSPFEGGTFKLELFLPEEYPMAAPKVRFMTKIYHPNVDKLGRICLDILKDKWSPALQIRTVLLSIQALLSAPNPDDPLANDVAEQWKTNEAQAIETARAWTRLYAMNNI
Format: functional.

Test [2] addresses T2, Ubiquitin-conjugating enzyme E2 N. Type of test: functional. The source holds these as a separate data set.
Test [3] has as its target T3, Coagulation factor XII (Homo sapiens, UniProt P00748).
T3 sequence (P00748 whole entry): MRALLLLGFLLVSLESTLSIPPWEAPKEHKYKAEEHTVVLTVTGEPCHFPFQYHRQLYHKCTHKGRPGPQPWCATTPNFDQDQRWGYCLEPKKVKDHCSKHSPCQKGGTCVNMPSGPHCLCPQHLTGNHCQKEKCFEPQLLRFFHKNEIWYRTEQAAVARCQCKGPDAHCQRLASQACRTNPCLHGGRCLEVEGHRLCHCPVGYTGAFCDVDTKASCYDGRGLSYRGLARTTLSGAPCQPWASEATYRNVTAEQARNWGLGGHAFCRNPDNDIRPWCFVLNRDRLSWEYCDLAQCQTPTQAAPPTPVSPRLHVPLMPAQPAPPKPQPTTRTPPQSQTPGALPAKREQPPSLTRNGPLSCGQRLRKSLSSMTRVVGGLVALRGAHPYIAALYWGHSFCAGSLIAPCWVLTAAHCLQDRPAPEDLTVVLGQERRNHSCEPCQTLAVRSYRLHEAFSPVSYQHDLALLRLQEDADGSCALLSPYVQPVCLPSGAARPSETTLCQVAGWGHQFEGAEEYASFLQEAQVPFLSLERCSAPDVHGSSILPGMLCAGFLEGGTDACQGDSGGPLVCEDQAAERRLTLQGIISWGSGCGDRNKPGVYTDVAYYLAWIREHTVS
The experiment in a line: Factor XIIa Dose Response Confirmation from Single Well HTS. [Related pubchem assays (depositor defined):AID701]. Type of test: functional.

Test [4] concerns the target T3, Coagulation factor XII. The experiment in a line: FXIIa inhibitor potency, concentration-response, biochemical (AID 716). Format: functional.
The target in test [5] is T4, G-protein coupled receptor 55 (Homo sapiens, UniProt Q9Y2T6). The experiment in a line: GPR55 antagonists blocking LPI-driven arrestin recruitment, primary screen, imaging, U2OS, beta-arrestin-GFP, LPI agonist (AID 2013).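 Also: antagonist potency measured as reduced agonist-driven arrestin aggregation.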 Type of test: functional. For orientation: Recruitment of arrestin is a read-out of receptor activation apart from second messengers.
T4 sequence (Q9Y2T6 whole entry): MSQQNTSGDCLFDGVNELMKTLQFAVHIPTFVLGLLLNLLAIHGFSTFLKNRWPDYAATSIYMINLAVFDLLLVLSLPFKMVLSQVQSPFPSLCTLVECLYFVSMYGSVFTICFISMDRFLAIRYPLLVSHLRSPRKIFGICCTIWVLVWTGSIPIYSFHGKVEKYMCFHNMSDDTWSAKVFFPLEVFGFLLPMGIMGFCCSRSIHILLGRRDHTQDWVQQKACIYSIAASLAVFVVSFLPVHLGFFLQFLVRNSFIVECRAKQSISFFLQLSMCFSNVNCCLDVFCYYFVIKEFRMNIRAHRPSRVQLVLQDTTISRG
Test [6] has as its target T5, Cannabinoid receptor 1 (Homo sapiens, UniProt P21554). The experiment in a line: SAR analysis of antagonists of the Cannabinoid Receptor 1 using an Image-Based Assay - Set 2. [Related pubchem assays (depositor defined):AID2013, AID2026]. Type of test: functional.
The target of test [7] is T6, G-protein coupled receptor 35 (Homo sapiens, UniProt Q9HC97). The experiment in a line: SAR analysis of Agonists of the GPR35 Receptor using an Image-Based Assay - Set 2. [Related pubchem assays (depositor defined):AID2013, AID2026]. Format: functional.
T6 sequence (Q9HC97 whole entry): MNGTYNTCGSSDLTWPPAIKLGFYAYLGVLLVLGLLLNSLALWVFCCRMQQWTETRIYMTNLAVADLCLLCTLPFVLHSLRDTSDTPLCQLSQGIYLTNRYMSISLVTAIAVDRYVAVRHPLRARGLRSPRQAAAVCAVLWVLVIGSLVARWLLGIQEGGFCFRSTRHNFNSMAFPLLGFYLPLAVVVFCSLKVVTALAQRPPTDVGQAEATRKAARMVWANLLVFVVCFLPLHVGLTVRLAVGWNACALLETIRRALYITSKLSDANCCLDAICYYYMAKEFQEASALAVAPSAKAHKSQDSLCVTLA
The target in test [8] is T7, Cannabinoid receptor 2 (Homo sapiens, UniProt P34972). The experiment in a line: SAR analysis of antagonists of the Cannabinoid Receptor 2 using an Image-Based Assay. [Related pubchem assays (depositor defined):AID2013, AID2026]. Type of test: functional.
T7 sequence (P34972 whole entry): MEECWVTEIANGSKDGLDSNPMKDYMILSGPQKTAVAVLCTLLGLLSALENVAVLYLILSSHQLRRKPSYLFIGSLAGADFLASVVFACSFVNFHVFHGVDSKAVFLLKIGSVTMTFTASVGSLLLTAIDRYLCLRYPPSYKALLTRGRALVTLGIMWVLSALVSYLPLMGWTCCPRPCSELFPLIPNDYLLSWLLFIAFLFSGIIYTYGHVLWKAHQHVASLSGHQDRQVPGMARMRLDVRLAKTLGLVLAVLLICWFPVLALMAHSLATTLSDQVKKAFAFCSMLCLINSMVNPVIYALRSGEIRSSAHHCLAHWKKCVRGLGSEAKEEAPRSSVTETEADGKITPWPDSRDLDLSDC
Test [9] concerns the target T5, Cannabinoid receptor 1. The experiment in a line: SAR analysis of agonists of the Cannabinoid Receptor 1 using an Image-Based Assay - Set 2. [Related pubchem assays (depositor defined):AID2013, AID2026]. Type of test: functional.
Test [10] deals with T6, G-protein coupled receptor 35. The experiment in a line: SAR analysis of Antagonists of the GPR35 Receptor using an Image-Based Assay - Set 3. [Related pubchem assays (depositor defined):AID2013, AID2026]. Type of test: functional.
Test [11] concerns the target T4, G-protein coupled receptor 55. The experiment in a line: GPR55 antagonist potency of analogs, SAR follow-up, imaging, U2OS, beta-arrestin-GFP, LPI agonist, set 2 (AID 2820). Format: functional.
Test [12] deals with T7, Cannabinoid receptor 2. The experiment in a line: SAR analysis of agonists of the Cannabinoid Receptor 2 using an Image-Based Assay. [Related pubchem assays (depositor defined):AID2013, AID2026]. Type of test: functional.
The target of a further test is Nonstructural protein 1 (Influenza A virus, UniProt Q194T2). Type of test: functional, Influenza A virus (A/California/07/2009(H1N1)).
Chain of Nonstructural protein 1 (Q194T2 whole entry): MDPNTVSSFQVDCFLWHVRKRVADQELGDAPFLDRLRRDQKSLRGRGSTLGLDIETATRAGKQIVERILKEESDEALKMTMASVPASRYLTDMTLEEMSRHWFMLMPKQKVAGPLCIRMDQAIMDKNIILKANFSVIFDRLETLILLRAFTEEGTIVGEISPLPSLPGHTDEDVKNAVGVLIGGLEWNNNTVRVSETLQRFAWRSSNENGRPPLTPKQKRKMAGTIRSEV
The next test addresses T8, Hexokinase HKDC1 (Homo sapiens, UniProt Q2TB90).
T8 sequence (Q2TB90 whole entry): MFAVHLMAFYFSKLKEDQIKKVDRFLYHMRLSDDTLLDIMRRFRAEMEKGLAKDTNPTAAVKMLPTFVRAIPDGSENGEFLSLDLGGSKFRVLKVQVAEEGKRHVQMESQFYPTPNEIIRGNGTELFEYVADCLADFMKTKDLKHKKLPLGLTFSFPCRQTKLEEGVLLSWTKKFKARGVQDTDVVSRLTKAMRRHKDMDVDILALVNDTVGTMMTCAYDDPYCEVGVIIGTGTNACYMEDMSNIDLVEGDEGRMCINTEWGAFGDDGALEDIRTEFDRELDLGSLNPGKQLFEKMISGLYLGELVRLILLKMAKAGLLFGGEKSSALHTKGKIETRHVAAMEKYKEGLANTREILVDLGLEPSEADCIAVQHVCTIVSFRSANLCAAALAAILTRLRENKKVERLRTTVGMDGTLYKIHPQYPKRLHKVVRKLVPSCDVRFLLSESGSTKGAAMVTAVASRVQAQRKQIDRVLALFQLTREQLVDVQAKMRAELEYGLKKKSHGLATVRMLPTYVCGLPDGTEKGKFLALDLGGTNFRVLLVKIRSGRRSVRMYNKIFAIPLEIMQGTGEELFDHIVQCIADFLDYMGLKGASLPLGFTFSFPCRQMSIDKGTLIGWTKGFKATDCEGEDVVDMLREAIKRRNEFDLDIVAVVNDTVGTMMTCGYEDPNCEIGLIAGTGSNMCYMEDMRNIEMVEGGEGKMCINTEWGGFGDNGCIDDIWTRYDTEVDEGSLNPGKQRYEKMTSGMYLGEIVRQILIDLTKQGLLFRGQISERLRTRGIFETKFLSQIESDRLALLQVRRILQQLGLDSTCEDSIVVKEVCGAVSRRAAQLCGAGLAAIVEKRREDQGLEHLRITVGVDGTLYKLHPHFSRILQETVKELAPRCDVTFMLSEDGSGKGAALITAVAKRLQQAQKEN
The experiment in a line: HKDC1 hexokinase inhibitors, dose response, biochemical, W721R variant (AID 504729). Format: functional.

The next test concerns the target T9, Hexokinase-1 (Homo sapiens, UniProt P19367).
T9 sequence (P19367 whole entry): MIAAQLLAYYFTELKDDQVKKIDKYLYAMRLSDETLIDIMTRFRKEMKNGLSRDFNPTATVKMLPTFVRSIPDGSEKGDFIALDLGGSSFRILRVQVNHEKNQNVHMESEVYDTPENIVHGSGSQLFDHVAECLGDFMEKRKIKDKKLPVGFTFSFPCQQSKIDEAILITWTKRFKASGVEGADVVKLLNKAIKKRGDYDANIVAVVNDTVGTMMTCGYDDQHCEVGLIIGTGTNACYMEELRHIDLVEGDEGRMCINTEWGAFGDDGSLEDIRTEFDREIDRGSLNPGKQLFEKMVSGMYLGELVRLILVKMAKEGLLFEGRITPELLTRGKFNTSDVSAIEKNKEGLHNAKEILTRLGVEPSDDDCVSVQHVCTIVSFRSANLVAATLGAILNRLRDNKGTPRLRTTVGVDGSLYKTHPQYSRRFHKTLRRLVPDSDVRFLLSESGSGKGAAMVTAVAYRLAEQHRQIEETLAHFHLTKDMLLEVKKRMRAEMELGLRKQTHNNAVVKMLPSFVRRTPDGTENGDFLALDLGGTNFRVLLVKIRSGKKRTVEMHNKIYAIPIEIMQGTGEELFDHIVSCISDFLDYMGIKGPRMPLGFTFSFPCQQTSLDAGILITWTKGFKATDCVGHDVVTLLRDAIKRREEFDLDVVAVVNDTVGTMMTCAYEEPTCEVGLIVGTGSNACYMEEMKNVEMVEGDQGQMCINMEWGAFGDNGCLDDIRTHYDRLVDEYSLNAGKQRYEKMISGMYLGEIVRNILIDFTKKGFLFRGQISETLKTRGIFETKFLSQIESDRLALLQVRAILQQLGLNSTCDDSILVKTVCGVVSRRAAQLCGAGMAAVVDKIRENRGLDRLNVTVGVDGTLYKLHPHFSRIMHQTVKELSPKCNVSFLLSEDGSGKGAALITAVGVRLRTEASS
The experiment in a line: hexokinase 1 activators, dose response, selectivity assay for HKDC1 activator project, biochemical (AID 504762). Format: functional.

Test [13] deals with T10, Rac GTPase-activating protein 1 (Homo sapiens, UniProt Q9H0H5).
T10 sequence (Q9H0H5 whole entry): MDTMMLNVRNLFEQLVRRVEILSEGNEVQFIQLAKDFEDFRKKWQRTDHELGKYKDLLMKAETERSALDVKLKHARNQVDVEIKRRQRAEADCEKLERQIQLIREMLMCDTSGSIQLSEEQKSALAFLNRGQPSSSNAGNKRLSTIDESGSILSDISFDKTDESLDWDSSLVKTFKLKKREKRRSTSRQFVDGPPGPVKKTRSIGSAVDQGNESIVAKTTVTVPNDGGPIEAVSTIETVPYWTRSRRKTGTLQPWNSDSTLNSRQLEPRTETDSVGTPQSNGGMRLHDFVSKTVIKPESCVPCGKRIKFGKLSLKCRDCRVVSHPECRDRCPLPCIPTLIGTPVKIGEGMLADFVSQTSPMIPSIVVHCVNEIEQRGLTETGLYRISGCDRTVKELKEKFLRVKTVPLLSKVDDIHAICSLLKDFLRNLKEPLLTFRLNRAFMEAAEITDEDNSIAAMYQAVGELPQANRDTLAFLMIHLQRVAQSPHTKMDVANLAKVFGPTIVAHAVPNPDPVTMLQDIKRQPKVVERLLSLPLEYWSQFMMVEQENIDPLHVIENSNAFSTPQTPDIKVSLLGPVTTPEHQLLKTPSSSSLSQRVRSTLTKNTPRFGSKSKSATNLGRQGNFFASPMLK
The experiment in a line: MgcRacGAP GTPase-activating activity inhibitors, confirmation, biochemical, ADP Hunter fluorescence, primary and confirmatory (AID 624330). Format: functional.

Test [14] deals with T11, E3 ubiquitin-protein ligase XIAP (Homo sapiens, UniProt P98170). The experiment in a line: Counter Screen using XIAP-Bir3 for Chemical Antagonists of Bir1/2 domains of IAP-family anti-apoptotic proteins. [Related pubchem assays (depositor defined):AID1018, AID1449, AID1514, AID1638, AID1749, AID1750, AID488957, AID488963]. (In general: A counterscreen serves to expose hits that act by an unwanted route or on another target.)
T11 sequence (P98170 whole entry): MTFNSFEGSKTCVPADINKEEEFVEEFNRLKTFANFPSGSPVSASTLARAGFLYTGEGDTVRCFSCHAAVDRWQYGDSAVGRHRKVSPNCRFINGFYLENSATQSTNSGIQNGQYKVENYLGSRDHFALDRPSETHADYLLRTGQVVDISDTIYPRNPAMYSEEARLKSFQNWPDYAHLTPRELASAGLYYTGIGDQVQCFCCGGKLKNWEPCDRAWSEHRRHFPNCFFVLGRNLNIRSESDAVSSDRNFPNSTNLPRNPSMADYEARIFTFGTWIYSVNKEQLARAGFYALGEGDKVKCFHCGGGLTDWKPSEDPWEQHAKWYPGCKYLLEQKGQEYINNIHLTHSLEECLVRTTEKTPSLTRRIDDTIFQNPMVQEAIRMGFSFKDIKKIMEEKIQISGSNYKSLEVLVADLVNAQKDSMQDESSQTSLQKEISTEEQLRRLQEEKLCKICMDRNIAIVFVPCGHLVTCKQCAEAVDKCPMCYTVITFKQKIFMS

The target of test [15] is T11, E3 ubiquitin-protein ligase XIAP. The experiment in a line: XIAP antagonists, biochemical, IAP family, fluorescence polarization (AID 1018). Format: functional. Background: Fluorescence polarisation rises when a labelled molecule tumbles more slowly, as on binding a larger partner.

The source made the active and inactive calls.

T5 sequence (P21554 whole entry): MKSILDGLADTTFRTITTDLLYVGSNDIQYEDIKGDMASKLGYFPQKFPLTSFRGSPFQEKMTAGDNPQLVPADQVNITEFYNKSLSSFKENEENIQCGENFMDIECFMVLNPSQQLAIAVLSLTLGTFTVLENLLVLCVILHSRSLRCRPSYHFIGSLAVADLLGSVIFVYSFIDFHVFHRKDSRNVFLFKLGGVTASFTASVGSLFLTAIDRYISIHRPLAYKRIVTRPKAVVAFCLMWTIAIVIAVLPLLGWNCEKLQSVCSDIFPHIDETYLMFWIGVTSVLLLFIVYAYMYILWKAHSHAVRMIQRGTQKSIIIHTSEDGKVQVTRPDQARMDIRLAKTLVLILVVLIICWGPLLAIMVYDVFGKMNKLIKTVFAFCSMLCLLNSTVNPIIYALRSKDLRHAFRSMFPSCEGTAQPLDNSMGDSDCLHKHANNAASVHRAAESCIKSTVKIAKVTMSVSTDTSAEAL

With `CC1(C)Cc2c(sc(NC(=O)C(=O)NCC3CCCO3)c2C(N)=O)CO1` (centres undefined), the IC50 on Bcl-2-related protein A1 was > 20 µM (inactive); in [1], 4.28 µM (active); in [2], 2.18 µM (active).

As to `Cc1ccc(C(=O)n2nnc3ccccc32)cc1`, the IC50 at Coagulation factor XII [3] was 2.29 µM (active).

For the molecule `CCCCC1(CC)C(=O)NC(=O)N=C1Nc1ccc(OC)cc1` (centres undefined), the IC50 on Coagulation factor XII [4] is > 50 µM (inactive).

`CC1=CC(C)(C)N2C(=O)C3(SCC(=O)N3c3ccc(O)cc3)c3cc(C)cc1c32` (centres undefined): the IC50 in [5] was 4.1 µM (active); on Cannabinoid receptor 1 [6], > 32 µM (inactive); on Cannabinoid receptor 2 [8], > 32 µM (inactive); in [10], > 32 µM (inactive); in test [11], 2.72 µM (active). The EC50 (in test [7]; on Cannabinoid receptor 1 [9]; on Cannabinoid receptor 2 [12]) was > 32 µM (inactive) each time.

As to `Oc1ccc(/C=N/NC(=S)Nc2cccnc2)c(O)c1`, the IC50 was 1.82 µM (active) at Nonstructural protein 1, > 80 µM (inactive) at Hexokinase HKDC1 and 40.5 µM (active) in test [13]. Moreover, the EC50 on Hexokinase-1 was > 80 µM (inactive).

For the molecule `CCOCCCNC(=O)c1cn(CC(C)C)c(=O)c2cc(OC)c(OC)cc12`, the IC50 is > 100 µM (inactive) in test [14] and > 100 µM (not active) in test [15].
